Laboratory results as given in ChEMBL document CHEMBL1138209, “Scaffold of the cyclooxygenase-2 (COX-2) inhibitor carprofen provides Alzheimer gamma-secretase modulators” (J Med Chem, 2006).
Active and inactive are the calls of the source. The rule behind the calls is not given here.

What was measured:
[1] = Inhibition of beta amyloid protein 42 in human H4 cells overexpressing APP695; type: cell-based
H4 [2] = assay: Increase in beta amyloid protein 38 in human H4 cells overexpressing APP695 at 40 uM; type: cell-based
[3] = Inhibition of beta amyloid protein 38 in human H4 cells overexpressing APP695; type: cell-based
[4] = Inhibition of beta amyloid protein 40 in human H4 cells overexpressing APP695; type: cell-based
H4 [5] = assay: Increase in beta amyloid protein 38 in human H4 cells overexpressing APP695 at 160 uM; type: cell-based
H4 [6] = assay: Increase in beta amyloid protein 38 in human H4 cells overexpressing APP695 at 200 uM; type: cell-based
[7] = molecular target: Prostaglandin G/H synthase 1 (Homo sapiens) (UniProt P23219); assay: Activity at COX1 at 10 uM
H4 [8] = assay: Cytotoxicity against human H4 cells at 40 uM; type: cell-based; conditions: h4, 40 µM
H4 [9] = assay: Increase in beta amyloid protein 38 in human H4 cells overexpressing APP695 at 150 uM; type: cell-based

Prostaglandin G/H synthase 1 (Homo sapiens), sequence (P23219 whole entry): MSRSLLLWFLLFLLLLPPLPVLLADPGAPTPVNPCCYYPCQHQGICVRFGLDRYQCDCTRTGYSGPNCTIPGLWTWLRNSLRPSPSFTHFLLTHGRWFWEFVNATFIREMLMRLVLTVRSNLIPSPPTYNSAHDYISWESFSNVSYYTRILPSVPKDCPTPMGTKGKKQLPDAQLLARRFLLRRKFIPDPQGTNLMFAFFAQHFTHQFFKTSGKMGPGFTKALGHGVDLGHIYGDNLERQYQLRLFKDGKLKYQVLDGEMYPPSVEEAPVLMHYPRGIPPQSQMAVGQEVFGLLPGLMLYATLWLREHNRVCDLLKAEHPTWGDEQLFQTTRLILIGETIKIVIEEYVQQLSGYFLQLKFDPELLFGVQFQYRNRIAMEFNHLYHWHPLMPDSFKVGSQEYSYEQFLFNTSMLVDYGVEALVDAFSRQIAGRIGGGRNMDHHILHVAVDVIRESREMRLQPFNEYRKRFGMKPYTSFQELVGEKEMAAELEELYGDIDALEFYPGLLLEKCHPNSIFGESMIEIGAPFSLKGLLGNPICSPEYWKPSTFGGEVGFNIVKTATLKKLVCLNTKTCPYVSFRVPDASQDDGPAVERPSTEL

Structure (SMILES)	IC50 [1] [µM]	Activity (H4 [2])	IC50 [4] [µM]	other results
CC(C(=O)O)c1ccc2c3cc(Cl)ccc3n(S(=O)(=O)c3cccc(F)c3)c2c1 (configuration not stated)	> 40	inactive		
CC(C(=O)O)c1ccc2c(c1)[nH]c1ccc(Cl)cc12 (racemic) [CARPROFEN]	76		133	IC50 [3]: 78 µM; Activity (H4 [5]): inactive
CC(C(=O)O)c1ccc2c3cc(Cl)ccc3n(S(=O)(=O)c3cc(C(F)(F)F)cc(C(F)(F)F)c3)c2c1 (configuration not stated)	11		> 30	Activity (H4 [6]): inactive
CCCCCCCCCCn1c2ccc(Cl)cc2c2ccc(C(C)C(=O)O)cc21 (configuration not stated)	2.9		> 40	EC50 [3]: 5.8 µM; Activity [7]: inactive
CC(C(=O)O)c1ccc2c3cc(Cl)ccc3n(S(=O)(=O)c3ccccc3Br)c2c1 (configuration not stated)	40	inactive		
CCCc1ccc(S(=O)(=O)n2c3ccc(Cl)cc3c3ccc(C(C)C(=O)O)cc32)cc1 (configuration not stated)	> 40	inactive	> 40	
CC(C(=O)O)c1ccc2c3cc(Cl)ccc3n(S(=O)(=O)c3cccc(Cl)c3)c2c1 (configuration not stated)	> 40	inactive		
CC(C(=O)O)c1ccc2c3cc(Cl)ccc3n(S(=O)(=O)c3cccc([N+](=O)[O-])c3)c2c1 (configuration not stated)	39	inactive		
CC(C(=O)O)c1ccc2c3cc(Cl)ccc3n(S(=O)(=O)c3ccc(Br)cc3)c2c1 (configuration not stated)	> 40	inactive		
CCCCCCCCCn1c2ccc(Cl)cc2c2ccc(C(C)C(=O)O)cc21 (configuration not stated)	3		> 40	EC50 [3]: 8.1 µM
CC(C(=O)O)c1ccc2c3cc(Cl)ccc3n(S(=O)(=O)c3ccccc3F)c2c1 (configuration not stated)	> 40	inactive		
CC(C(=O)O)c1ccc2c3cc(Cl)ccc3n(S(=O)(=O)c3ccc(C#N)cc3)c2c1 (configuration not stated)	> 40	inactive		
CC(C)c1cc(C(C)C)c(S(=O)(=O)n2c3ccc(Cl)cc3c3ccc(C(C)C(=O)O)cc32)c(C(C)C)c1 (configuration not stated)	8.5		> 20	EC50 [3]: 9.3 µM; Activity (H4 [8]): Toxic
CC(C(=O)O)c1ccc2c3cc(Cl)ccc3n(S(=O)(=O)c3cc(Br)c(Br)s3)c2c1 (configuration not stated)	> 40	inactive		
CCCCCCCCn1c2ccc(Cl)cc2c2ccc(C(C)C(=O)O)cc21 (configuration not stated)	6.9	inactive	> 40	
CC(C(=O)O)c1ccc2c3cc(Cl)ccc3n(S(=O)(=O)c3ccc(-c4ccccc4)cc3)c2c1 (configuration not stated)	37	inactive		
CC(C(=O)O)c1ccc2c3cc(Cl)ccc3n(S(=O)(=O)c3ccc(Cl)cc3)c2c1 (configuration not stated)	> 40	inactive		
COc1cccc(Cn2c3ccc(Cl)cc3c3ccc(C(C)C(=O)O)cc32)c1 (configuration not stated)	39	inactive	> 40	
CC(C(=O)O)c1ccc2c3cc(Cl)ccc3n(S(=O)(=O)c3ccc([N+](=O)[O-])cc3)c2c1 (configuration not stated)	> 40	inactive		
CC(C(=O)O)c1ccc2c3cc(Cl)ccc3n(S(=O)(=O)c3cc(F)cc(F)c3)c2c1 (configuration not stated)	> 40	inactive		
CCCCCCCCS(=O)(=O)n1c2ccc(Cl)cc2c2ccc(C(C)C(=O)O)cc21 (configuration not stated)	25	inactive	> 40	
CC(C(=O)O)c1ccc2c3cc(Cl)ccc3n(S(=O)(=O)c3ccccc3)c2c1 (configuration not stated)	> 40	inactive		
CC(C(=O)O)c1ccc2c3cc(Cl)ccc3n(Cc3cccc(OC(F)(F)F)c3)c2c1 (configuration not stated)	7.5	inactive	> 40	
CC(C(=O)O)c1ccc2c3cc(Cl)ccc3n(Cc3cccc(NC(=O)CCCC[C@@H]4SC[C@@H]5NC(=O)N[C@@H]54)c3)c2c1 (some centres not stated)	88		> 150	Activity (H4 [9]): inactive; Activity (H4 [8]): Toxic
Cc1ccc(S(=O)(=O)n2c3ccc(Cl)cc3c3ccc(C(C)C(=O)O)cc32)cc1 (configuration not stated)	56		> 100	EC50 [3]: 43 µM; Activity (H4 [6]): inactive
CC(C(=O)O)c1ccc2c3cc(Cl)ccc3n(Cc3cccc([N+](=O)[O-])c3)c2c1 (configuration not stated)	22	inactive	> 40	
CC(C(=O)O)c1ccc2c3cc(Cl)ccc3n(S(=O)(=O)c3ccc(F)cc3)c2c1 (configuration not stated)	> 40	inactive		
